From PMC11900317, “KinasePred: A Computational Tool for Small-Molecule Kinase Target Prediction” (International Journal of Molecular Sciences, 2025) come the findings set out here.

Where two headings read alike, the source gives them in different places.

Experiment in all cases: Z'-LYTE fluorescence kinase assay, single point
Holding throughout (format): biochemical

The target of one assay is T1, ROCK2 (Homo sapiens, UniProt O75116).
T1 construct: commercial kinase panel (Z'-LYTE, Thermo Fisher)
Conditions: read-out: VS2. An excerpt: Z'-LYTE fluorescence kinase assay, single point on ROCK2

In another assay the target is T2, LRKK2 (Homo sapiens, UniProt Q5S007).
T2 construct: gene LRRK2; commercial kinase panel (Z'-LYTE, Thermo Fisher)
An excerpt:
Z'-LYTE fluorescence kinase assay, single point on LRKK2

The target of another assay is T3, SYK (Homo sapiens, UniProt P43405).
T3 construct: commercial kinase panel (Z'-LYTE, Thermo Fisher)
An excerpt:
Z'-LYTE fluorescence kinase assay, single point on SYK

Another assay has as its target T4, CSF1R (Homo sapiens, UniProt P07333).
T4 construct: commercial kinase panel (Z'-LYTE, Thermo Fisher)
An excerpt: Z'-LYTE fluorescence kinase assay, single point on CSF1R

A further assay addresses T5, MAPK8 (Homo sapiens, UniProt P45983).
T5 construct: commercial kinase panel (Z'-LYTE, Thermo Fisher)
Particulars: read-out: VS6. An excerpt: Z'-LYTE fluorescence kinase assay, single point on MAPK8

Another assay has as its target T6, IRAK4 (Homo sapiens, UniProt Q9NWZ3).
T6 construct: commercial kinase panel (Z'-LYTE, Thermo Fisher)
T6 sequence (Q9NWZ3 1-460): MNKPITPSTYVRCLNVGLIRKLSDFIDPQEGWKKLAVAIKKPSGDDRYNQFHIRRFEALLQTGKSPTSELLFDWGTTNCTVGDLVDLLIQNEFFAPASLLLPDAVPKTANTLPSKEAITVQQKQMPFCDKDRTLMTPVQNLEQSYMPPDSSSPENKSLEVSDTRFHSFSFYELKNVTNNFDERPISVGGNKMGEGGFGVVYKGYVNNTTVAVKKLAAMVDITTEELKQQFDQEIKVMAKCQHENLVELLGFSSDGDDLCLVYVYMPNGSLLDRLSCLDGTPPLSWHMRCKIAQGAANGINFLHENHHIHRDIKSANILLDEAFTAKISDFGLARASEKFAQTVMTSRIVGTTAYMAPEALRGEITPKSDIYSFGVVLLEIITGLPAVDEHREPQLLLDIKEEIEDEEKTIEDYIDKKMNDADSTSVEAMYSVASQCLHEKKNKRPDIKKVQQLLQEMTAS
Particulars: read-out: VS7. The source says: Z'-LYTE fluorescence kinase assay, single point on IRAK4

For a further assay, the target named is T7, LCK (Homo sapiens, UniProt P06239).
T7 construct: commercial kinase panel (Z'-LYTE, Thermo Fisher)
Conditions: read-out: VS7. The source says:
Z'-LYTE fluorescence kinase assay, single point on LCK

The next assay has as its target T8, NTRK1 (Homo sapiens, UniProt P04629).
T8 construct: commercial kinase panel (Z'-LYTE, Thermo Fisher)
Conditions: read-out: VS7. An excerpt:
Z'-LYTE fluorescence kinase assay, single point on NTRK1

For a further assay, the target named is T9, PTK2 (Homo sapiens, UniProt Q05397).
T9 construct: commercial kinase panel (Z'-LYTE, Thermo Fisher)
Particulars: read-out: VS7. An excerpt:
Z'-LYTE fluorescence kinase assay, single point on PTK2

T4 sequence (P07333 20-972): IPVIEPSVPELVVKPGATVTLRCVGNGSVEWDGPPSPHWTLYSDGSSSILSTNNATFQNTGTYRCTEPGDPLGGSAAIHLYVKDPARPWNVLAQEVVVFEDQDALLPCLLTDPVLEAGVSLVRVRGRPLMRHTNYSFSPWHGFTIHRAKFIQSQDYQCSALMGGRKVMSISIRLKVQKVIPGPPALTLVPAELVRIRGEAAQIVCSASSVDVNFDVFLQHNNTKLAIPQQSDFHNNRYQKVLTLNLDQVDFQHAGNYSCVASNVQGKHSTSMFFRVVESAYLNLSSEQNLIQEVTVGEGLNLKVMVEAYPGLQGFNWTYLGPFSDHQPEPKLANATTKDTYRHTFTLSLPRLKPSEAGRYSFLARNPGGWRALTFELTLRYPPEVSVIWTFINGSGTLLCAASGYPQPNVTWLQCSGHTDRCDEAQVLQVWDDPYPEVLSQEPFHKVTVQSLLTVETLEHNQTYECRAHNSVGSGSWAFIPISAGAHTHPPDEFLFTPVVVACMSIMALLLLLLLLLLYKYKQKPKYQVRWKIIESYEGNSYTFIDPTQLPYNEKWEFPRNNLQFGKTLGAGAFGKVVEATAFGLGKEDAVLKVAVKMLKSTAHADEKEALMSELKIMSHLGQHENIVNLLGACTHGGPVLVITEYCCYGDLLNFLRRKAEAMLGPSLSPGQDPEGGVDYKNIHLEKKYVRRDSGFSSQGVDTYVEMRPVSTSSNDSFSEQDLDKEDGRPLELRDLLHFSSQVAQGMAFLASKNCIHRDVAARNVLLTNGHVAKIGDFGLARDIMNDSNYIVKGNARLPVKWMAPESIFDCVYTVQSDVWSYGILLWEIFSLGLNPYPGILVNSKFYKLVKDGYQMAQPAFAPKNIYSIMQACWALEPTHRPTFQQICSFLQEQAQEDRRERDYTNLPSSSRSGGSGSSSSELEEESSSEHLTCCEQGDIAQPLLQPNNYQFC
T2 sequence (Q5S007 whole entry): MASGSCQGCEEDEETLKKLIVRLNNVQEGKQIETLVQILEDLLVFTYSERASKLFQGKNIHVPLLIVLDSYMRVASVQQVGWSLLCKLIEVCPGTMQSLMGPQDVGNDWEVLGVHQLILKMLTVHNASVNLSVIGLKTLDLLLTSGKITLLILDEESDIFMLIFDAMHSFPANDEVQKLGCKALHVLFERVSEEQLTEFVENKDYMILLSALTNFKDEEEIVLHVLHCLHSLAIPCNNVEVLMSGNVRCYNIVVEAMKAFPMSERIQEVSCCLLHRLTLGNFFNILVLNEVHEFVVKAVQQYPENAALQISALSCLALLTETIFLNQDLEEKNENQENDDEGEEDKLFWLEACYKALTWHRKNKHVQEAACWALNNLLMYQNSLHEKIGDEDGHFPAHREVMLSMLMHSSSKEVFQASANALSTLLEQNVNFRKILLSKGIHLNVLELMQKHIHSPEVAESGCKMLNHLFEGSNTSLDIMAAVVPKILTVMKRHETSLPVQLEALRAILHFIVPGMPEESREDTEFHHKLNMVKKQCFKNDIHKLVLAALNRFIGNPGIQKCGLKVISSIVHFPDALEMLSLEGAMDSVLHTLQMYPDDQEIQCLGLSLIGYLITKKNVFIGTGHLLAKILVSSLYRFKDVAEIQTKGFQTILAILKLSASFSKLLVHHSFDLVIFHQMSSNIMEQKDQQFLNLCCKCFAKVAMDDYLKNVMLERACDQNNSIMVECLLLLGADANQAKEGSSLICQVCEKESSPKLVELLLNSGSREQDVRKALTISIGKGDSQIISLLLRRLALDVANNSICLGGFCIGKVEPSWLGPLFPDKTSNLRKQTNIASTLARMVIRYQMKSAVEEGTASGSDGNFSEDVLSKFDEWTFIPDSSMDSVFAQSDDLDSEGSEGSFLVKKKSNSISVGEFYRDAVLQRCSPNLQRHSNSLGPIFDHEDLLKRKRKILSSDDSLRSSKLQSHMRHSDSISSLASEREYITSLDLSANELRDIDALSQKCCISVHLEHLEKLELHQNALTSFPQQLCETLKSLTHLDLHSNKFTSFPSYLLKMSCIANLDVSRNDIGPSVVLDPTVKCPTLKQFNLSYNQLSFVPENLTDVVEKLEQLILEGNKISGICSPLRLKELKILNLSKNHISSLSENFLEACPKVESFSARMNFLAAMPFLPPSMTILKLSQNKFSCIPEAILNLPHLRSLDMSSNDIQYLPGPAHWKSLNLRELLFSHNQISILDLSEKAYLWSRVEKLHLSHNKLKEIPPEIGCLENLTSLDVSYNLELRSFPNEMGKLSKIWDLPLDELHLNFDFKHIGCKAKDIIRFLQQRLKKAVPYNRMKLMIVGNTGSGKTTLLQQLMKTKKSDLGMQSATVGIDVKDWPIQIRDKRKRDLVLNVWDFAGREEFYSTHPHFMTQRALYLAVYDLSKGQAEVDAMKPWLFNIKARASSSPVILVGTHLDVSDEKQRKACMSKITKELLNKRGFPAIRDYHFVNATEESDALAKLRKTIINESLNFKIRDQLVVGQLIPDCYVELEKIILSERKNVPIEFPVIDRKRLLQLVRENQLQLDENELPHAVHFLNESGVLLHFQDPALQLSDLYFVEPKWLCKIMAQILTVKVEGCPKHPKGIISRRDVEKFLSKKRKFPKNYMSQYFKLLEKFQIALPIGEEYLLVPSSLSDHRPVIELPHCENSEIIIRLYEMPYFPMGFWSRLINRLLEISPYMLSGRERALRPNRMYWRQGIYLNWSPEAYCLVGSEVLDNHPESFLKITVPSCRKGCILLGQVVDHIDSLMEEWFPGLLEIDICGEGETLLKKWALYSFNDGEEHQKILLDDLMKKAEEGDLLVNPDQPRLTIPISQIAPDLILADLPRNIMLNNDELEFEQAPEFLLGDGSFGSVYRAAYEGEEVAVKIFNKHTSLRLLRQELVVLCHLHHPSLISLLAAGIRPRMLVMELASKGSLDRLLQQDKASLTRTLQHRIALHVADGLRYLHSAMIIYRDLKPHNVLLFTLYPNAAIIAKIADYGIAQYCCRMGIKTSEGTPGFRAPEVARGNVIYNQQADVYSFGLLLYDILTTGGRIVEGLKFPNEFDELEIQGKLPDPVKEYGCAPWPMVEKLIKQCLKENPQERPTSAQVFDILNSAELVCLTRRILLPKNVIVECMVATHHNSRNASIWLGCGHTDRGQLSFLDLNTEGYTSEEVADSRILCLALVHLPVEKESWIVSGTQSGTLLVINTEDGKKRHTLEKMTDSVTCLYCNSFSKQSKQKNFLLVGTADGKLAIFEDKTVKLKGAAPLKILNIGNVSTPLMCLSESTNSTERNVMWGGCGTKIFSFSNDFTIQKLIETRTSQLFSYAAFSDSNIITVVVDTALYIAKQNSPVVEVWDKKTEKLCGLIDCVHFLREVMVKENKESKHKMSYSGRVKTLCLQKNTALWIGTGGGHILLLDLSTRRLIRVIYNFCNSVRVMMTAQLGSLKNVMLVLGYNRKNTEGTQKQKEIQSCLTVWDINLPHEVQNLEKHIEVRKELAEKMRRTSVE
T8 sequence (P04629 33-796): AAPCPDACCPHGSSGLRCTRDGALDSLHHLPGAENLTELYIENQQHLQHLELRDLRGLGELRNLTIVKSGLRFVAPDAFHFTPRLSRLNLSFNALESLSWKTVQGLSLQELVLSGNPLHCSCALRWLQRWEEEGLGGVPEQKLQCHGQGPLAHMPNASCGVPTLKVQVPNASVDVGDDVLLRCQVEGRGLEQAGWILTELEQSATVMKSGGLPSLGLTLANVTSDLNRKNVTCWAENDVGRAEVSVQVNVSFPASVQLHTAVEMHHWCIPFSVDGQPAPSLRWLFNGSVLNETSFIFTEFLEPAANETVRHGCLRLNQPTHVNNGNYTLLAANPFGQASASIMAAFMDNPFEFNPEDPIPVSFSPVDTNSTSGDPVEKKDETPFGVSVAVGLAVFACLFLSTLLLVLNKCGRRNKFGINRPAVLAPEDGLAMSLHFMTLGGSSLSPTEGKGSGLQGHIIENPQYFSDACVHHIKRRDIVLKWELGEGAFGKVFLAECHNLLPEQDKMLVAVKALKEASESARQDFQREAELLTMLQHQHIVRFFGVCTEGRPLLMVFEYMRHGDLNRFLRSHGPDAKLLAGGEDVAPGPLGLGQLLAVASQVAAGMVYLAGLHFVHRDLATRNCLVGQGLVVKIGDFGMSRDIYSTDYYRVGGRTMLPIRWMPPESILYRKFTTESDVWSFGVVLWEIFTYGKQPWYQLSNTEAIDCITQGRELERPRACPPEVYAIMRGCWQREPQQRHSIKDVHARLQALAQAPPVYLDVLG
T7 sequence (P06239 2-509): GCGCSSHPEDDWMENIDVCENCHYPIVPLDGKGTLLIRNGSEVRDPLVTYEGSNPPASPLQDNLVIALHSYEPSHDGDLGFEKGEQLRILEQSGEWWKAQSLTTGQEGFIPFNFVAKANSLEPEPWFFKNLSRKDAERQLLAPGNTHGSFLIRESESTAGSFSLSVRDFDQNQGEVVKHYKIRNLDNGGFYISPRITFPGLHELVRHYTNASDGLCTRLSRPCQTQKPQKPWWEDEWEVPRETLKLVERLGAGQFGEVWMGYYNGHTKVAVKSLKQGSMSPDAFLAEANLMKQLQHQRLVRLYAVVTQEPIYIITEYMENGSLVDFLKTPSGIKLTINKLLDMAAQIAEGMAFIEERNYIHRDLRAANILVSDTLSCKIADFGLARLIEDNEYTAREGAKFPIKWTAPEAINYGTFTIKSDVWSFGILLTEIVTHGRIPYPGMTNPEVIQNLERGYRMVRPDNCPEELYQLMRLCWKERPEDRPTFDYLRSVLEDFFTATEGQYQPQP

Take `O=C(Nc1ccncc1)c1cccc(C(F)(F)F)c1` [VS2]: the figures for the inhibition at 10 µM on ROCK2 and on LRKK2 (read-out: VS2) were 74% and 50%, respectively.

For `c1ccc(Nc2nccc(-c3ccsc3)n2)cc1` [VS6], the inhibition at 10 µM is 57% at SYK (read-out: VS6), 89% at CSF1R (read-out: VS6), 60% at LRKK2 (read-out: VS6) and 63% on MAPK8.

Consider `Cc1cc(C(=O)Nc2scc(-c3ccc(C)c(C)c3)c2C(N)=O)no1` [VS5], for which the inhibition at 10 µM at CSF1R (read-out: VS5) turned out to be 54%.

On to `NC(=O)c1ccc(Nc2nc(NCc3ccco3)c3ccccc3n2)cc1` [VS7], for which the inhibition at 10 µM was 90% on SYK (read-out: VS7); 80% at IRAK4; 53% on LCK; 89% at CSF1R (read-out: VS6); 100% at LRKK2 (read-out: VS7); 90% at NTRK1. The inhibition at 10 µM on PTK2 is 66%.

Take `COc1cc(/C=C(/C#N)C(=O)c2ccccc2)ccc1O` [VS3]: on LRKK2 (read-out: VS3), the inhibition at 10 µM worked out at 54%.
